In ChEMBL document CHEMBL5724914, “Linking interpersonal differences in gut microbiota composition and drug biotransformation activity” (2024):

What was measured:
[1] = human gut metagenome, 24 h, 2 µM
[2] = human gut metagenome, 24 h, 2 µM; remark: listed apart in the source
[3] = human gut metagenome, 24 h, 2 µM; remark: listed apart in the source
[4] = (§1) The drug is tested on Z-002 corresponding to rabbit gut metagenome with ENA study accession number: PRJEB37062 and ENA sample accession number: ERS12561802 for biotransformation under anaerobic condition. The drug concentrations were measured over 9 timepoints collected between 0 and 24 hours of incubation by liquid-chromatography-coupled mass spectrometry (LC–MS); settings: 2 µM
[5] = as §1, with “WLS-006” for “Z-002”, “human” for “rabbit”, “ERS12561741” for “ERS12561802”; settings: 2 µM
[6] = human gut metagenome, 24 h, 2 µM; remark: listed apart in the source
[7] = as §1, with “Z-003” for “Z-002”, “pig” for “rabbit”, “ERS12561803” for “ERS12561802”; settings: 2 µM
[8] = human gut metagenome, 24 h, 2 µM; remark: listed apart in the source
[9] = human gut metagenome, 24 h, 2 µM; remark: listed apart in the source
[10] = as §1, with “Z-014” for “Z-002”, “rat” for “rabbit”, “ERS12561814” for “ERS12561802”; settings: 2 µM
[11] = human gut metagenome, 24 h, 2 µM; remark: listed apart in the source
[12] = as §1, with “Z-019” for “Z-002”, “rat” for “rabbit”, “ERS12561818” for “ERS12561802”; settings: 2 µM
[13] = as §1, with “Z-009” for “Z-002”, “pig” for “rabbit”, “ERS12561809” for “ERS12561802”; settings: 2 µM
[14] = human gut metagenome, 24 h, 2 µM; remark: listed apart in the source
[15] = human gut metagenome, 24 h, 2 µM; remark: listed apart in the source
[16] = human gut metagenome, 24 h, 2 µM; remark: listed apart in the source
[17] = as §1, with “WLS-098” for “Z-002”, “human” for “rabbit”, “ERS12561754” for “ERS12561802”; settings: 2 µM
[18] = human gut metagenome, 24 h, 2 µM; remark: listed apart in the source
[19] = human gut metagenome, 24 h, 2 µM; remark: listed apart in the source
[20] = human gut metagenome, 24 h, 2 µM; remark: listed apart in the source
Also: call rule not given here.

| Compound | Bacterial Biotransformation [1] | Bacterial Biotransformation [2] | Bacterial Biotransformation [3] | Bacterial Biotransformation [4] | Bacterial Biotransformation [5] | Bacterial Biotransformation [6] | Bacterial Biotransformation [7] | Bacterial Biotransformation [8] | Bacterial Biotransformation [9] | Bacterial Biotransformation [10] | Bacterial Biotransformation [11] | Bacterial Biotransformation [12] | Bacterial Biotransformation [13] | Bacterial Biotransformation [14] | Bacterial Biotransformation [15] | Bacterial Biotransformation [16] | Bacterial Biotransformation [17] | Bacterial Biotransformation [18] | Bacterial Biotransformation [19] | Bacterial Biotransformation [20] |
| --- | --- | --- | --- | --- | --- | --- | --- | --- | --- | --- | --- | --- | --- | --- | --- | --- | --- | --- | --- | --- |
| COCCc1ccc(OCC(O)CNC(C)C)cc1.COCCc1ccc(OCC(O)CNC(C)C)cc1.O=C(O)C(O)C(O)C(=O)O (stereo not given) [METOPROLOL TARTRATE] | Compound NOT metabolized | Compound metabolized | Compound NOT metabolized | Compound metabolized | Compound NOT metabolized | Compound NOT metabolized | Compound metabolized | Compound metabolized | Compound metabolized | Compound NOT metabolized | Compound metabolized | Compound NOT metabolized | Compound NOT metabolized | Compound NOT metabolized | Compound metabolized | Compound NOT metabolized | Compound metabolized | Compound NOT metabolized | Compound NOT metabolized | Compound NOT metabolized |
| Fc1ccc([C@@H]2CCNC[C@H]2COc2ccc3c(c2)OCO3)cc1 [PAROXETINE] | Compound metabolized | Compound metabolized | Compound NOT metabolized | Compound NOT metabolized | Compound NOT metabolized | Compound metabolized | Compound metabolized | Compound metabolized | Compound metabolized | Compound NOT metabolized | Compound metabolized | Compound NOT metabolized | Compound metabolized | Compound metabolized | Compound NOT metabolized | Compound NOT metabolized | Compound metabolized | Compound NOT metabolized | Compound metabolized | Compound metabolized |
| CC(C)(C#N)c1cc(Cn2cncn2)cc(C(C)(C)C#N)c1 [ANASTROZOLE] | Compound NOT metabolized | Compound metabolized | Compound NOT metabolized | Compound metabolized | Compound NOT metabolized | Compound metabolized | Compound metabolized | Compound metabolized | Compound metabolized | Compound NOT metabolized | Compound metabolized | Compound NOT metabolized | Compound metabolized | Compound NOT metabolized | Compound metabolized | Compound NOT metabolized | Compound metabolized | Compound NOT metabolized | Compound NOT metabolized | Compound NOT metabolized |
| CCN(CC)CCOC(=O)C(Cc1cccc2ccccc12)CC1CCCO1.O=C(O)C(=O)O (stereo not given) [NAFRONYL OXALATE] | Compound metabolized | Compound metabolized | Compound metabolized | Compound metabolized | Compound metabolized | Compound metabolized | Compound metabolized | Compound metabolized | Compound metabolized | Compound NOT metabolized | Compound metabolized | Compound NOT metabolized | Compound metabolized | Compound NOT metabolized | Compound metabolized | Compound metabolized | Compound metabolized | Compound metabolized | Compound metabolized | Compound metabolized |
